Measured values from PubChem BioAssay (NCI).
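Where inhibition never reached the appropriate level, the endpoint shown equals the highest concentration tested. Otherwise, values were interpolated linearly from a five-concentration, 48-hour dose response in 96-well plates. The concentration for 50% growth inhibition is given as GI50. Definition used: TGI = concentration required for complete inhibition of growth.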

What was measured:
Assay in all cases: NCI tumour cell line growth inhibition, 48 h
SK-MEL-5 melanoma = tested on: SK-MEL-5 melanoma
UO-31 renal = tested on: UO-31 renal
DU-145 prostate = tested on: DU-145 prostate
SF-268 CNS = tested on: SF-268 CNS
MCF7 breast = tested on: MCF7 breast
CCRF-CEM leukemia = tested on: CCRF-CEM leukemia
BT-549 breast = tested on: BT-549 breast
MDA-MB-435 = tested on: MDA-MB-435
IGROV1 ovarian = tested on: IGROV1 ovarian
SN12C renal = tested on: SN12C renal
HCT-116 colon = tested on: HCT-116 colon
HCT-15 colon = tested on: HCT-15 colon
SK-MEL-2 melanoma = tested on: SK-MEL-2 melanoma
K-562 leukemia = tested on: K-562 leukemia
M14 melanoma = tested on: M14 melanoma
HCC-2998 colon = tested on: HCC-2998 colon
OVCAR-4 ovarian = tested on: OVCAR-4 ovarian
MDA-MB-231 breast = tested on: MDA-MB-231 breast
ACHN renal = tested on: ACHN renal
A549 NSCLC = tested on: A549 NSCLC
SNB-75 CNS = tested on: SNB-75 CNS
MOLT-4 leukemia = tested on: MOLT-4 leukemia
SR leukemia = tested on: SR leukemia
UACC-257 melanoma = tested on: UACC-257 melanoma
SNB-19 CNS = tested on: SNB-19 CNS
SK-MEL-28 melanoma = tested on: SK-MEL-28 melanoma
KM12 colon = tested on: KM12 colon
CAKI-1 renal = tested on: CAKI-1 renal
OVCAR-3 ovarian = tested on: OVCAR-3 ovarian
HL-60(TB) leukemia = tested on: HL-60(TB) leukemia
NCI-H23 lung = tested on: NCI-H23 lung
SW-620 colon = tested on: SW-620 colon
A498 renal = tested on: A498 renal
COLO 205 colon = tested on: COLO 205 colon
T-47D breast = tested on: T-47D breast
TK-10 renal = tested on: TK-10 renal
HOP-62 NSCLC = tested on: HOP-62 NSCLC
NCI-H460 lung = tested on: NCI-H460 lung
OVCAR-5 ovarian = tested on: OVCAR-5 ovarian
RXF 393 renal = tested on: RXF 393 renal
LOX IMVI melanoma = tested on: LOX IMVI melanoma
SK-OV-3 ovarian = tested on: SK-OV-3 ovarian
EKVX NSCLC = tested on: EKVX NSCLC
NCI/ADR-RES ovarian = tested on: NCI/ADR-RES ovarian
786-0 renal = tested on: 786-0 renal
NCI-H226 lung = tested on: NCI-H226 lung
SF-539 CNS = tested on: SF-539 CNS
HOP-92 NSCLC = tested on: HOP-92 NSCLC
UACC-62 melanoma = tested on: UACC-62 melanoma
PC-3 prostate = tested on: PC-3 prostate
SF-295 CNS = tested on: SF-295 CNS
OVCAR-8 ovarian = tested on: OVCAR-8 ovarian
HS 578T breast = tested on: HS 578T breast
MALME-3M melanoma = tested on: MALME-3M melanoma
RPMI-8226 leukemia = tested on: RPMI-8226 leukemia
U251 CNS = tested on: U251 CNS
HT29 colon = tested on: HT29 colon
NCI-H522 lung = tested on: NCI-H522 lung

For `COC(=O)c1cc(C)[nH]c2c(C)cc3nc4ccccc4c3c12`, the GI50 (SK-MEL-5 melanoma) was 5.97 µM, the TGI (SK-MEL-5 melanoma) was 19.2 µM and the GI50 (UO-31 renal) was 4.46 µM. It also gave a TGI (UO-31 renal) of 19.1 µM, a GI50 (DU-145 prostate) of 11.8 µM and a TGI (DU-145 prostate) of 24.7 µM. For the same molecule, the GI50 (SF-268 CNS) was 11 µM, the TGI (SF-268 CNS) was 23.8 µM and the GI50 (MCF7 breast) was 8.01 µM. The TGI (MCF7 breast) was 22.8 µM, the GI50 (CCRF-CEM leukemia) was 5.23 µM and the TGI (CCRF-CEM leukemia) was 86.4 µM. For the same molecule, the GI50 (BT-549 breast) was 12.1 µM, the TGI (BT-549 breast) was 25 µM and the GI50 (MDA-MB-435) was 9.01 µM. It also gave a TGI (MDA-MB-435) of 22.2 µM, a GI50 (IGROV1 ovarian) of 6.01 µM and a TGI (IGROV1 ovarian) of 23.9 µM. The GI50 (SN12C renal) was 11.7 µM, the TGI (SN12C renal) was 30.8 µM and the GI50 (HCT-116 colon) was 10.2 µM. The TGI (HCT-116 colon) was 23 µM, the GI50 (HCT-15 colon) was 5.19 µM and the TGI (HCT-15 colon) was 22.2 µM. The GI50 (SK-MEL-2 melanoma) was 13.2 µM, the TGI (SK-MEL-2 melanoma) was 28.8 µM and the GI50 (K-562 leukemia) was 4.34 µM. For the same molecule, the TGI (K-562 leukemia) was 46.1 µM, the GI50 (M14 melanoma) was 11 µM and the TGI (M14 melanoma) was 23.7 µM. For the same molecule, the GI50 (HCC-2998 colon) was 8.99 µM, the TGI (HCC-2998 colon) was 23.9 µM and the GI50 (OVCAR-4 ovarian) was 12.5 µM. The TGI (OVCAR-4 ovarian) was 25.3 µM, the GI50 (MDA-MB-231 breast) was 2.44 µM and the TGI (MDA-MB-231 breast) was 10.5 µM. For the same molecule, the GI50 (ACHN renal) was 11.6 µM, the TGI (ACHN renal) was 25.4 µM and the GI50 (A549 NSCLC) was 10.2 µM. The TGI (A549 NSCLC) was 22.8 µM, the GI50 (SNB-75 CNS) was 8.5 µM and the TGI (SNB-75 CNS) was 21 µM. It also gave a GI50 (MOLT-4 leukemia) of 4.83 µM, a TGI (MOLT-4 leukemia) of 42.2 µM and a GI50 (SR leukemia) of 6.13 µM. For the same molecule, the TGI (SR leukemia) was 58.2 µM, the GI50 (UACC-257 melanoma) was 16.1 µM and the TGI (UACC-257 melanoma) was 30 µM. It also gave a GI50 (SNB-19 CNS) of 12.7 µM, a TGI (SNB-19 CNS) of 29.5 µM and a GI50 (SK-MEL-28 melanoma) of 14.6 µM. The TGI (SK-MEL-28 melanoma) was 28.3 µM, the GI50 (KM12 colon) was 4.94 µM and the TGI (KM12 colon) was 18.1 µM. The GI50 (CAKI-1 renal) was 2.89 µM, the TGI (CAKI-1 renal) was 13.4 µM and the GI50 (OVCAR-3 ovarian) was 10.3 µM. It also gave a TGI (OVCAR-3 ovarian) of 22.1 µM, a GI50 (HL-60(TB) leukemia) of 7.34 µM and a TGI (HL-60(TB) leukemia) of 55.3 µM. It also gave a GI50 (NCI-H23 lung) of 7.54 µM, a TGI (NCI-H23 lung) of 26.4 µM and a GI50 (SW-620 colon) of 7.91 µM. For the same molecule, the TGI (SW-620 colon) was 27 µM, the GI50 (A498 renal) was 6.07 µM and the TGI (A498 renal) was 21.2 µM. For the same molecule, the GI50 (COLO 205 colon) was 12.7 µM, the TGI (COLO 205 colon) was 25.8 µM and the GI50 (T-47D breast) was 3.2 µM. The TGI (T-47D breast) was 12.9 µM, the GI50 (TK-10 renal) was 5.73 µM and the TGI (TK-10 renal) was 19.5 µM. It also gave a GI50 (HOP-62 NSCLC) of 12.4 µM, a TGI (HOP-62 NSCLC) of 25.1 µM and a GI50 (NCI-H460 lung) of 4.25 µM. The TGI (NCI-H460 lung) was 22.5 µM, the GI50 (OVCAR-5 ovarian) was 15.6 µM and the TGI (OVCAR-5 ovarian) was 32.7 µM. The GI50 (RXF 393 renal) was 11.6 µM, the TGI (RXF 393 renal) was 25 µM and the GI50 (LOX IMVI melanoma) was 5.38 µM. For the same molecule, the TGI (LOX IMVI melanoma) was 32.2 µM, the GI50 (SK-OV-3 ovarian) was 13.4 µM and the TGI (SK-OV-3 ovarian) was 26.5 µM. It also gave a GI50 (EKVX NSCLC) of 6.5 µM, a TGI (EKVX NSCLC) of 20.5 µM and a GI50 (NCI/ADR-RES ovarian) of 3.87 µM. For the same molecule, the TGI (NCI/ADR-RES ovarian) was 18 µM, the GI50 (786-0 renal) was 7.1 µM and the TGI (786-0 renal) was 21.4 µM. It also gave a GI50 (NCI-H226 lung) of 14 µM, a TGI (NCI-H226 lung) of 28.9 µM and a GI50 (SF-539 CNS) of 12.4 µM. It also gave a TGI (SF-539 CNS) of 26.4 µM, a GI50 (HOP-92 NSCLC) of 5.85 µM and a TGI (HOP-92 NSCLC) of 20.7 µM. The GI50 (UACC-62 melanoma) was 5.99 µM, the TGI (UACC-62 melanoma) was 21.1 µM and the GI50 (PC-3 prostate) was 4.86 µM. It also gave a TGI (PC-3 prostate) of 18.8 µM, a GI50 (SF-295 CNS) of 3.41 µM and a TGI (SF-295 CNS) of 14.1 µM. For the same molecule, the GI50 (OVCAR-8 ovarian) was 6.35 µM, the TGI (OVCAR-8 ovarian) was 19 µM and the GI50 (HS 578T breast) was 15 µM. For the same molecule, the TGI (HS 578T breast) was over 100 µM, the GI50 (MALME-3M melanoma) was 14.7 µM and the TGI (MALME-3M melanoma) was 28.5 µM. For the same molecule, the GI50 (RPMI-8226 leukemia) was 5.75 µM, the TGI (RPMI-8226 leukemia) was 46.9 µM and the GI50 (U251 CNS) was 10.7 µM. The TGI (U251 CNS) was 23.9 µM, the GI50 (HT29 colon) was 3.11 µM and the TGI (HT29 colon) was 13.5 µM. For the same molecule, the GI50 (NCI-H522 lung) was 3.23 µM and the TGI (NCI-H522 lung) was 14.5 µM.
